{
  "source": "patent US8420852B2",
  "about": "“Phospholipase A2 inhibitors and their use in treating neurological injury and disease” (The Regents of the University of California, priority 2007, dated 2013)",
  "key": {"[1]": {"test_system": "SJL/J mice induced with EAE", "assay": "EAE model of multiple sclerosis, clinical score", "format": "in vivo, mouse"}, "[2]": {"test_system": "fatty acids attached to phospholipid classes in spinal cord", "assay": "lipid profiling of spinal cords of EAE mice (fatty acid hydrolysis)", "format": "in vivo, mouse", "details": "for Treatment: mean ± SD, n=3; for % Difference: treated EAE vs naive", "description": "Spinal cords were removed from vehicle and inhibitor treated animals at the peak stage of disease when the vehicle-treated mice reached the clinical score of 4, and the tissue snap frozen in liquid nitrogen. Lipid profiling was carried out by Lipomics Technology Inc. (West Sacramento, Calif.). The tissues were then extracted for either TrueMass® lipid profiling, or an eicosanoid inflammatory panel analysis. The lipids from the tissues were extracted in the presence of authentic internal standards as previously described (55), using chloroform:methanol (2:1 v/v). Individual lipid classes within each extract were separated by liquid chromatography (Agilent Technologies model 1100 Series). Each lipid class was trans-esterified in 1% sulfuric acid in methanol in a sealed vial under a nitrogen atmosphere at 100° C. for 45 min. The resulting fatty acid methyl esters were extracted from the mixture with hexane containing 0.05% butylated hydroxytoluene and prepared for gas chromatography by sealing the hexane extracts under nitrogen. Fatty acid methyl esters were separated and quantified by capillary gas chromatography (Agilent Technologies model 6890) equipped with a 30 m DB-88MS capillary column (Agilent Technologies) and a flame-ionization detector. Lipomic Surveyor® software was used to visualize changes within the treated groups. Experiments were repeated with 3 different samples (n=3), and all the detection and analysis was done blind.\nAs PLA2s hydrolyze fatty acids from the sn-2 position of phospholipids, a comprehensive profiling was carried out of 40 fatty acids (FAs) that are attached to 5 phospholipid classes in extracts of spinal cords of naive mice, EAE mice treated with vehicle, and PLA2 inhibitor-treated EAE mice. […] These tissues were taken from the same groups of mice used for the chemokine/cytokine assay described above."}, "sPLA2 (GV)": {"target": "T1, sPLA2 (GV) (Homo sapiens, UniProt P39877)", "T1 sequence (P39877 21-138)": "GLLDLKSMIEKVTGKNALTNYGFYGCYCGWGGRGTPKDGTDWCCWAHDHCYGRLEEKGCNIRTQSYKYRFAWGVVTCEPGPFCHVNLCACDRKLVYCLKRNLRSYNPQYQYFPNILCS", "assay": "sPLA2 inhibition assay", "format": "biochemical", "details": "at 0.091 mol fraction", "description": "The compounds described herein were tested for inhibition of PLA2s in in vitro assay systems. The data, summarized in the Examples, are represented as XI(50) values unless otherwise noted. XI(50) is defined as the inhibitor concentration that produced 50% inhibition. XI(50) is used as opposed to the more common IC50 because GIVA and GVIA PLA2 are active at a two-dimensional lipid interface rather than in three-dimensional solution. (Deems, Anal. Biochem., 287:1-16, 2000). For the groups that received delayed treatment after symptoms occurred, mice were treated with daily intraperitoneal injections of AX059 starting from the first day of clinical symptoms, beginning on day 11; and AX115 starting from the first day of clinical peak (i.e., score 4), beginning of day 14. All inhibitors were administered for 2 weeks. The selectivity of the compounds for the different PLA2s is shown as the percentage inhibition in Table 1. The XI(50) is the mole fraction of the inhibitor in the total substrate interface required to inhibit the enzyme by 50%. PLA2 inhibitors. It has been previously reported that long chain 2-oxoamides based on gamma-amino acids are potent inhibitors of cPLA2 (GIVA). […] A 2-oxoamide based on a glycine methyl ester, AX115, inhibits sPLA2 (GV) as well as cPLA2 (GIVA) and iPLA2 (GVIA). […]"}, "GIIA PLA2": {"target": "T2, GIIA PLA2 (Homo sapiens, UniProt P14555)", "T2 sequence (P14555 21-144)": "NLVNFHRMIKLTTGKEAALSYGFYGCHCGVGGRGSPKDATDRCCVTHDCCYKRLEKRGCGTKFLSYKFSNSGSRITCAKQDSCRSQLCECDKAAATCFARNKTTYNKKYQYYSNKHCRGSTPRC", "assay": "vesicle assay for GIIA PLA2", "format": "biochemical", "excerpt": "Vesicle assays have generally been employed for this enzyme, but they have limitations for in vitro comparison of inhibitor potency."}, "[3]": {"test_system": "BALB/c mice with spinal cord contusion", "assay": "spinal cord contusion (SCI) model, locomotor recovery and histology", "format": "in vivo, mouse"}},
  "note": "Entries after “also recorded” stand apart in the source; their conditions may differ.",
  "data": [
    {"smiles": "CCCCCCCCCCCCCCC(=O)C(=O)NCC(=O)OC", "note": "[AX115]", "values": [
      {"measurement": "mean maximal peak clinical grade at day 17", "setting": "[1]; delayed treatment from peak of first attack, did not differ from vehicle", "value": "~3"},
      {"measurement": "clinical score on day 35", "setting": "[1]; delayed treatment from peak of first attack, vehicle 2.3", "value": 2.8},
      {"measurement": "clinical score on day 23", "setting": "[1]; delayed treatment from peak of first attack, vehicle about 1.4", "value": 2.5},
      {"measurement": "clinical course of EAE vs vehicle control", "setting": "[1]; delayed treatment from peak of first clinical attack (day 14), daily i.p.", "value": "prevents remission of the disease; also recorded: remission was prevented; also recorded: worsened the disease"},
      {"measurement": "clinical course of EAE vs vehicle control", "setting": "[1]; treatment before onset of symptoms, from day 5/6 after immunization, daily for 3 weeks", "value": "no statistical significance; also recorded: did not differ from vehicle treated control mice; also recorded: did not substantially differ from vehicle treated controls"},
      {"measurement": "Treatment", "setting": "[2]; Cardiolipin - arachidic, naive 464.0 ± 69.4", "value": "324.4 ± 27.5", "unit": "nmol"},
      {"measurement": "% Difference", "setting": "[2]; Cardiolipin - arachidic", "value": 30.1, "unit": "%"},
      {"measurement": "Treatment", "setting": "[2]; Cardiolipin - eicosapentaenoic, naive 16.1 ± 4.8", "value": "3.2 ± 5.5", "unit": "nmol"},
      {"measurement": "% Difference", "setting": "[2]; Cardiolipin - eicosapentaenoic", "value": 80.3, "unit": "%"},
      {"measurement": "Treatment", "setting": "[2]; Phosphatidylcholine - arachidic, naive 347.9 ± 20.1", "value": "269.4 ± 24.9", "unit": "nmol"},
      {"measurement": "% Difference", "setting": "[2]; Phosphatidylcholine - arachidic", "value": 22.5, "unit": "%"},
      {"measurement": "Treatment", "setting": "[2]; Phosphatidylcholine - eicosenoic, naive 1666.2 ± 46.4", "value": "1393.4 ± 52.5", "unit": "nmol"},
      {"measurement": "% Difference", "setting": "[2]; Phosphatidylcholine - eicosenoic", "value": 16.4, "unit": "%"},
      {"measurement": "% Difference", "setting": "[2]; Phosphatidylcholine - erucic", "value": 22.4, "unit": "%"},
      {"measurement": "Treatment", "setting": "[2]; Phosphatidylserine - tetracosahexanoic, naive 9.7 ± 0.8", "value": "6.4 ± 0.6", "unit": "nmol"},
      {"measurement": "% Difference", "setting": "[2]; Phosphatidylserine - tetracosahexanoic", "value": 33.8, "unit": "%"},
      {"measurement": "Treatment", "setting": "[2]; Phosphatidylserine-1-enyl-octadecenoic, naive 217.4 ± 37.9", "value": "133.3 ± 32.5", "unit": "nmol"},
      {"measurement": "% Difference", "setting": "[2]; Phosphatidylserine-1-enyl-octadecenoic", "value": 38.7, "unit": "%"},
      {"measurement": "Inhibition sPLA2 GIVA/GV*", "setting": "sPLA2 (GV)", "value": 52, "unit": "%"},
      {"measurement": "inhibition of GIIA compared with GV PLA2", "setting": "GIIA PLA2", "value": "comparable inhibition"},
      {"measurement": "neuron survival in ventral horn (cresyl violet)", "setting": "[3]; 300 to 1000 μm rostral and caudal to lesion epicenter, 28 dpi, vs vehicle", "value": "significantly greater neuron survival; also recorded: significantly better survival of ventral horn neurons; also recorded: greater number of neuronal profiles"},
      {"measurement": "serotonergic innervation", "setting": "[3]; 1000 μm caudal to lesion epicenter, 28 dpi, vs vehicle", "value": "significantly greater serotonergic innervation; also recorded: marked increase of serotonergic fibers"},
      {"measurement": "BMS score", "setting": "[3]; 28 days after SCI, vehicle 4.6, 9-point scale", "value": 6.6},
      {"measurement": "locomotor function (BMS scores) vs vehicle treated injured mice", "setting": "[3]; daily i.p. 6.85 mg/kg from 1 h after contusion for 14 days, significant from 5 dpi, 6.85 mg/kg", "value": "marked improvement in the BMS scores; also recorded: markedly improved locomotor function"},
      {"measurement": "myelin loss (Luxol fast blue)", "setting": "[3]; epicenter and 300 μm rostral and caudal, 28 dpi, vs vehicle", "value": "marked reduction of myelin loss"},
      {"measurement": "tissue sparing (GFAP staining)", "setting": "[3]; lesion epicenter and adjacent regions, 28 dpi, vs vehicle", "value": "significant amount of tissue sparing; also recorded: significant tissue protection; also recorded: marked reduction in tissue loss"},
      {"measurement": "improvement in BMS subscores (fine locomotor control)", "setting": "[3]; vs vehicle", "value": 4, "unit": "points"},
      {"measurement": "increase in the density of 5-HT fibers within the lateral funiculi and ventral horns", "setting": "[3]; vs vehicle", "value": 3, "unit": "fold"}
    ]}
  ]
}
